# Tests used:
# ATCC6872 = assay: Resistance/susceptibility of strain ATCC6872 to substances (minimal medium, 1.7% agar); type: cell-based, Corynebacterium stationis
# Text: (§1) ATCC6872 (10^7 cells/mL to 10^8 cells/mL) was suspended in a phosphate buffer (pH 7.0) or in a citrate buffer (pH 5.5) in order to prepare an ATCC6872-derived IMP-producing strain, and then mutation was induced by UV treatment. The resultants were washed twice with a 0.85% saline solution, and then diluted and smeared on a medium containing an appropriate concentration of a substance to be resistant to a minimal medium containing 1.7% agar. Thereafter, colonies were obtained. Each colony was cultured in a nutrient medium and cultured in a seed medium for 24 hours. After 3 to 4 days of culturing in a fermentation medium, colonies with the highest amount of IMP accumulated in the culture medium were selected. In order to produce a high-concentration IMP producing-strain, and to provide adenine auxotrophy, guanine leakage, lysozyme susceptibility, 3,4-dihydroproline resistance, streptomycin resistance, azetidine carboxylic acid resistance, thiaproline resistance, azaserine resistance, sulfaguanidine resistance, norvaline resistance, and trimethoprim resistance, the procedures above were performed sequentially for each substance.
# (§2) The compositions of the media are as follows: • Minimal medium: 2% glucose, 0.3% sodium sulfate, 0.1% […], 0.3% K2HPO4, 0.3% magnesium sulfate, calcium chloride (10 mg/L), iron sulfate (10 mg/L), zinc sulfate (1 mg/L), manganese chloride (3.6 mg/L), L-cysteine (20 mg/L), calcium pantothenate (10 mg/L), thiamine hydrochloride (5 mg/L), biotin (30 μg/L), adenine (20 mg/L), guanine (20 mg/L), pH 7.3 • Nutrient medium: 1% peptone, 1% meat juice, 0.25% sodium chloride, 1% yeast extract, 2% agar, pH 7.2 • Seed medium: 1% glucose, 1% peptone, 1% meat juice, 1% yeast extract, 0.25% sodium chloride, adenine (100 mg/L), guanine (100 mg/L), pH 7.5 • Fermentation medium: 0.1% sodium glutamate, 1% ammonium chloride, 1.2% magnesium sulfate, 0.01% calcium chloride, iron sulfate (20 mg/L), manganese sulfate (20 mg/L), zinc sulfate (20 mg/L), copper sulfate (5 mg/L), L-cysteine (23 mg/L), alanine (24 mg/L), nicotinic acid (8 mg/L), biotin (45 μg/L), thiamin hydrochloride (5 mg/L), adenine (30 mg/L), 1.9% phosphoric acid (85%), 2.55% glucose, 1.45% fructose
# CJI0323 = type: cell-based, Corynebacterium stationis; conditions: strain CJI0323
# Text: as §1, §2
Molecule,resistance (ATCC6872),resistance (CJI0323),Lysozyme susceptibility (ATCC6872),Lysozyme susceptibility (CJI0323)
"O=C(O)C1C=CCN1 (stereo not drawn) [3,4-Dihydroproline]",1000 µg/mL,3500 µg/mL,–,–
[N-]=[N+]=CC(=O)OC[C@H](N)C(=O)O [Azaserine],25 µg/mL,100 µg/mL,–,–
O=C(O)[C@@H]1CCN1 [Azetidine carboxylic acid],5000 µg/mL,30000 µg/mL,–,–
CCC[C@H](N)C(=O)O [Norvaline],200 µg/mL,2000 µg/mL,–,–
[H]/N=C(/N)N[C@H]1[C@H](O)[C@@H](O)[C@H](O[C@@H]2O[C@@H](C)[C@](O)(C=O)[C@H]2O[C@@H]2O[C@@H](CO)[C@H](O)[C@@H](O)[C@@H]2NC)[C@@H](N/C(N)=N\[H])[C@@H]1O [Streptomycin],500 µg/mL,2000 µg/mL,–,–
[H]/N=C(/N)NS(=O)(=O)c1ccc(N)cc1 [Sulfaguanidine],50 µg/mL,200 µg/mL,–,–
O=C(O)[C@@H]1CSCN1 [Thiaproline],10 µg/mL,100 µg/mL,–,–
COc1cc(Cc2cnc(N)nc2N)cc(OC)c1OC [Trimethoprim],20 µg/mL,100 µg/mL,–,–
Lysozyme,–,–,80 µg/mL,8 µg/mL

# Source: US11155849B2, “IMP-producing microorganism and method of producing IMP using the same” (CJ CHEILJEDANG CORPORATION, priority 2017, dated 2021)
